# In patent US8497298B2, “Use of benzo-fused heterocycle sulfamide derivatives for lowering lipids and lowering blood glucose levels” (Janssen Pharmaceutica NV, priority 2005, dated 2013):
# Tested on: Zucker diabetic fatty (ZDF Gmi-fa/fa) rats
# Test: Oral Glucose Tolerance Test (OGTT) in Zucker diabetic fatty rats, Day 7 (Example 15)
# Type: in vivo, rat
# Settings: for AUC for blood glucose (OGTT) / OGTT blood glucose 30 min / OGTT blood glucose 60 min / OGTT blood glucose 90 min / OGTT blood glucose 120 min: Day 7; for OGTT blood glucose 0 min: Day 7, 4 hour-fasted, 2g/kg glucose
# Protocol: Compound #8 was suspended in 0.5% Methocel using a hand held homogenizer to reduce the particle size and a magnetic stir bar and stir plate to keep the particles homogeneously suspended throughout the dosing period. 0.5% Hydroxypropyl Methylcellulose (Methocel) used as vehicle/control. Compound #8 was tested in both diabetic models of mouse and rat.
# In this study, female Zucker diabetic fatty (ZDF Gmi-fa/fa) rats were selected for glucose lowering effect and oral glucose tolerance test (OGTT) studies. ZDF rats from (Charles River Laboratories, Wilmington, Mass.) at 7 weeks of age were individually housed and fed with C13004 diet (obtained from Research Diets, New Brunswick, N.J.). All of the rats were quarantined for a period of one week before transfer to the animal procedure room. A drop of blood (about 2 microliters) was collected by tail puncture and glucose concentration was detected with a glucometer (OneTouch UltraSmart, Lifescan, Milpitas, Calif.).
# ZDF rats at 8 weeks of age were randomized into four treatment groups based on glucose values (first criterion, average of 150 mg/dL) and body weight (second criterion, average of 240 g). 32 rats were allocated into 4 treatment groups of 8 rats each. The four groups were then treated with 0.5% Methocel (vehicle), 10 mg/kg Compound #8, 30 mg/kg Compound #8, and 100 mg/kg Compound #8 in vehicle, respectively.
# The rats were orally gavaged once daily (at 1500-1700 hour) with vehicle control (0.5% Methocel, pH7.4) or vehicle containing Compound #8 for 7 days. The dosing volume was 5 mL/kg body weight (1.2 mL for 250 gram rat). The rats were fed ad lib throughout the study.
# Basal glucose levels after treatments were measured on Day 4 and Day 6 in 2 hour fasted rats with a glucometer (OneTouch UltraSmart, Lifescan, Milpitas, Calif.) after collecting two microliters of blood through tail puncture. Oral Glucose Tolerance Test (OGTT) was performed on Day 7 in 4 hour-fasted rats. Two hours after being dosed with Compound #8 or vehicle, the rats were gavaged with a 2g/kg of 50% glucose solution right after basal glucose levels measurement (0 minute). Blood glucose levels were then measured at 30, 60, 90 and 120 minutes through tail puncture.
# Data from this study was analyzed using the standard two-tailed Student's t-test and are expressed below as means and standard errors.
compound,measurement,setting,value
"NS(=O)(=O)NC[C@H]1COc2cc(Cl)ccc2O1 [Compound #8, (2S)-(−)-N-(6-Chloro-2,3-dihydro-benzo[1,4]dioxin-2-ylmethyl)-sulfamide]",AUC for blood glucose (OGTT),10 mg/kg,33279 ± 3607 mg·min/dL
same,OGTT blood glucose 30 min,10 mg/kg,281 ± 30
same,OGTT blood glucose 60 min,10 mg/kg,316 ± 33
same,OGTT blood glucose 90 min,10 mg/kg,293 ± 24
same,OGTT blood glucose 120 min,10 mg/kg,252 ± 30
same,OGTT blood glucose 0 min,10 mg/kg,186 ± 30
same,AUC for blood glucose (OGTT),30 mg/kg,28556 ± 2477 mg·min/dL
same,OGTT blood glucose 30 min,30 mg/kg,244 ± 24
same,OGTT blood glucose 60 min,30 mg/kg,263 ± 18
same,OGTT blood glucose 90 min,30 mg/kg,253 ± 23
same,OGTT blood glucose 120 min,30 mg/kg,221 ± 18
same,OGTT blood glucose 0 min,30 mg/kg,163 ± 18
same,AUC for blood glucose (OGTT),100 mg/kg,21529 ± 984 mg·min/dL
same,OGTT blood glucose 30 min,100 mg/kg,209 ± 14
same,OGTT blood glucose 60 min,100 mg/kg,200 ± 10
same,OGTT blood glucose 90 min,100 mg/kg,175 ± 8
same,OGTT blood glucose 120 min,100 mg/kg,145 ± 7
same,OGTT blood glucose 0 min,100 mg/kg,123 ± 5
